From PMC5927774, “Isoxazol-5(2H)-one: a new scaffold for potent human neutrophil elastase (HNE) inhibitors” (Journal of Enzyme Inhibition and Medicinal Chemistry, 2017)

What was measured:
[1] = target: T1, HNE (human neutrophil elastase) (Homo sapiens, UniProt P08246); assay: HNE inhibition assay (fluorogenic substrate); type: biochemical; conditions: for IC50: Table 1, mean ± SD of three independent experiments, NA = no inhibitory activity at the highest concentration tested (50 μM)
T1 construct: purchased Calbiochem, La Jolla, CA
T1 sequence (P08246 30-267): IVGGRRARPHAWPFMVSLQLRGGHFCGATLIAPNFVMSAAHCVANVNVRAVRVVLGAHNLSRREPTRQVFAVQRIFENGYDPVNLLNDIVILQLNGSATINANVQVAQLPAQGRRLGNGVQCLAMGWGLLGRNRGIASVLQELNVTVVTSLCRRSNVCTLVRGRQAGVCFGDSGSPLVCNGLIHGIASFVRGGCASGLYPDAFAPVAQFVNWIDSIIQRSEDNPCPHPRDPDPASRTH
Method: HNE inhibition assay. Compounds were dissolved in 100% DMSO at 5 mM stock concentrations. The final concentration of DMSO in the reactions was 1%, and this level of DMSO had no effect on enzyme activity. The HNE inhibition assay was performed in black flat-bottom 96-well microtiter plates. Briefly, a buffer solution containing 200 mM Tris–HCl, pH 7.5, 0.01% bovine serum albumin, 0.05% Tween-20, and 20 mU/ml of HNE (Calbiochem, La Jolla, CA) was added to wells containing different concentrations of each compound. The reaction was initiated by addition of 25 μM elastase substrate (N-methylsuccinyl-Ala-Ala-Pro-Val-7-amino-4-methylcoumarin, Calbiochem) in a final reaction volume of 100 μL/well. Kinetic measurements were obtained every 30 s for 10 min at 25 °C using a Fluoroskan Ascent FL fluorescence microplate reader (Thermo Electron, Waltham, MA) with excitation and emission wavelengths at 355 and 460 nm, respectively. For all compounds tested, the concentration of inhibitor that caused 50% inhibition of the enzymatic reaction (IC50) was calculated by plotting % inhibition versus logarithm of inhibitor concentration (at least six points). The data are presented as the mean values of at least three independent experiments with relative standard deviations of <15%.

HNE [2] = target: T2, HNE (Homo sapiens, UniProt P08246); assay: Compound hydrolysis in the presence of HNE; type: biochemical; conditions: for half-life: human, phosphate buffer supplemented with HNE (400 mU/ml), pH 7.3, 400 mU/ml HNE, read-out: t1/2 (h) In the presence HNE (converted)
T2 construct: purchased Calbiochem, La Jolla, CA
T2 sequence (P08246 30-267): T1 sequence (P08246 30-267)
Method: (§1) Spontaneous hydrolysis of selected derivatives was evaluated at 25 °C in 0.05 M phosphate buffer, pH 7.3. Kinetics of hydrolysis were monitored by measuring changes in absorbance spectra over time using a SpectraMax Plus microplate spectrophotometer (Molecular Devices, Sunnyvale, CA). Absorbance (At) at the characteristic absorption maxima of each compound was measured at the indicated times until no further absorbance decreases occurred (A∞)[30]. Using these measurements, we created semilogarithmic plots of log(At – A∞) versus time, and k′ values were determined from the slopes of these plots. Half-conversion times were calculated using t1/2=0.693/k′, as described previously.
In the presence of 400 mU/ml HNE, the hydrolysis was 2.2–4.8-fold higher than for spontaneous hydrolysis (i.e. without HNE) (Table 3).
Figure 5. Analysis of compound 2i spontaneous hydrolysis. Compound 2i (80 μM) was incubated in 0.05 M phosphate buffer ([…], 25 °C) supplemented with […] HNE, as indicated. Spontaneous hydrolysis was monitored by measuring changes in absorbance at 275 nm (absorption maximum of compound 2i) over time. The data are presented as the mean ± SD of triplicate samples from one experiment, which is representative of two independent experiments.

HNE [3] = target: T2, HNE; assay: Reversibility of the HNE-inhibitor complex over time (kinetic curves); type: biochemical; conditions: compound at 5 μM
Method: (§2) However, inhibition by compound 2s was reversed after 10 min. […] To better understand the mechanism of action of this isoxazolone HNE inhibitor, we performed additional kinetic experiments.
Figure 6. Evaluation of HNE inhibition by selected isoxazolone derivatives. HNE was incubated with the indicated compounds at 5 μM concentrations, and kinetic curves monitoring substrate cleavage catalysed by HNE are shown. Representative curves are from three independent experiments.

[4] = Spontaneous hydrolysis (chemical stability) in aqueous buffer; type: physicochemical; conditions: 25 °C, 0.05 M phosphate buffer, pH 7.3; read-out: t1/2 (h) Spontaneous hydrolysis (converted)
Method: as §1

HNE [5] = target: T2, HNE; assay: Lineweaver-Burk analysis of HNE inhibition; type: biochemical; conditions: double-reciprocal Lineweaver-Burk plot
Method: as §2
Figure 7. Kinetics of HNE inhibition by compound 2o. Representative double-reciprocal Lineweaver–Burk plot from three independent experiments.

Row | Structure (SMILES) | IC50 [1] [nM] | half-life (HNE [2]) [h] | half-life [4] [h] | other results
1 | CCc1c(C)c(=O)on1C(=O)C1CC1 [Compound 2e, 2-(Cyclopropanecarbonyl)-3-ethyl-4-methylisoxazol-5(2H)-one] | 2200 ± 280 |  |  | 
2 | Cc1cccc(C(=O)n2oc(=O)c(C)c2C)c1 [Compound 2b, 3,4-Dimethyl-2-(3-methylbenzoyl)isoxazol-5(2H)-one] | 10900 ± 1200 |  |  | 
3 | CCc1c(C)c(=O)on1C(=O)c1cccc(C)c1 [Compound 2f, 3-Ethyl-4-methyl-2-(3-methylbenzoyl)isoxazol-5(2H)-one] | 1800 ± 320 |  |  | 
4 | CC(C)c1cc(=O)on1C(=O)c1cccc(C#N)c1 [Compound 2p, 3-(3-Isopropyl-5-oxo-2,5-dihydroisoxazole-2-carbonyl)benzonitrile] | 6500 ± 1700 |  |  | 
5 | Cc1cccc(C(=O)n2oc(=S)cc2C(C)C)c1 [Compound 3b, (3-Isopropyl-5-thioxoisoxazol-2(5H)-yl)-(m-tolyl)methanone] |  |  |  | HNE inhibitory activity (in words) [1]: inactivity
6 | CCc1cc(=O)on1C(=O)C1CC1 [Compound 2i, 2-(Cyclopropanecarbonyl)-3-ethylisoxazol-5(2H)-one] | 96 ± 22 | 4 | 19.3 | hydrolysis with increasing HNE concentration (in words) (HNE [2]; 80 μM compound, 0.05 M phosphate buffer pH 7.5, 25 °C, 0, 50, 200, 400 μg/ml HNE, absorbance at 275 nm): dose-dependent hydrolysis; time during which HNE inhibition was maximal (HNE [3]): 30 min
7 | CCOC(=O)c1c(C)c(=O)on1C(=O)C1CC1 [Compound 2g, Ethyl 2-(cyclopropanecarbonyl)-4-methyl-5-oxo-2,5-dihydroisoxazole-3-carboxylate] | 440 ± 140 |  |  | 
8 | CC(C)c1cc(=O)on1C(=O)c1cccc(C(F)(F)F)c1 [Compound 2r, 3-Isopropyl-2-(3-(trifluoromethyl)benzoyl)isoxazol-5(2H)-one] | 1200 ± 220 |  |  | 
9 | Cc1c(C)n(C(=O)C2CC2)oc1=O [Compound 2a, 2-(Cyclopropanecarbonyl)-3,4-dimethylisoxazol-5(2H)-one] | 120 ± 23 |  |  | 
10 | CCC(=O)n1oc(=O)cc1C(C)C [Compound 2k, 3-Isopropyl-2-propionylisoxazol-5(2H)-one] | 1100 ± 140 |  |  | melting point: 92 to 95 °C
11 | CC(C)c1cc(=O)on1C(=O)C1CCCC1 [Compound 2m, 2-(Cyclopentanecarbonyl)-3-isopropylisoxazol-5(2H)-one] | 560 ± 150 |  |  | 
12 | CCc1c(C)n(C(=O)C2CC2)oc1=O [Compound 2c, 2-(Cyclopropanecarbonyl)-4-ethyl-3-methylisoxazol-5(2H)-one] | 130 ± 25 |  |  | 
13 | Cc1cccc(Cn2oc(=O)c(C)c2C)c1 [Compound 4a, 3,4-Dimethyl-2-(3-methylbenzyl)isoxazol-5(2H)-one] |  |  |  | melting point: 80 to 83 °C
14 | CC(C)c1cc(=O)on1C(=O)C1CC1 [Compound 2l, 2-(Cyclopropanecarbonyl)-3-isopropylisoxazol-5(2H)-one] | 34 ± 9 | 4.3 | 19.3 | time during which HNE inhibition was maximal (HNE [3]): 30 min
15 | CC(C)c1cc(=O)on1C(=O)c1ccc(C#N)cc1 [Compound 2q, 4-(3-Isopropyl-5-oxo-2,5-dihydroisoxazole-2-carbonyl)benzonitrile] | 18200 ± 2500 |  |  | melting point: 113 to 115 °C
16 | CC(C)c1cc(=O)on1C(=O)c1ccc(C(F)(F)F)cc1 [Compound 2s, 3-Isopropyl-2-(4-(trifluoromethyl)benzoyl)isoxazol-5(2H)-one] | 34 ± 12 | 0.9 | 3.1 | time after which HNE inhibition was reversed (HNE [3]): 10 min
17 | Cc1cccc(C(=O)n2oc(=O)cc2C(C)C)c1 [Compound 2n, 3-Isopropyl-2-(3-methylbenzoyl)isoxazol-5(2H)-one] | 42 ± 11 | 2.6 | 6.2 | time during which HNE inhibition was maximal (HNE [3]): 30 min
18 | Cc1ccc(C(=O)n2oc(=O)cc2C(C)C)cc1 [Compound 2o, 3-Isopropyl-2-(4-methylbenzoyl)isoxazol-5(2H)-one] | 20 ± 7 | 3.4 | 8.9 | melting point: 77 to 79 °C; mechanism of HNE inhibition (in words) (HNE [5]): competitive HNE inhibitor; time after which HNE inhibition was reversed (HNE [3]): 120 min
19 | CCc1c(C)n(C(=O)c2cccc(C)c2)oc1=O [Compound 2d, 4-Ethyl-3-methyl-2-(3-methylbenzoyl)isoxazol-5(2H)-one] | 94 ± 23 | 3.5 | 7.7 | time during which HNE inhibition was maximal (HNE [3]): 30 min
20 | CCc1cc(=O)on1C(=O)c1cccc(C)c1 [Compound 2j, 3-Ethyl-2-(3-methylbenzoyl)isoxazol-5(2H)-one] | 43 ± 11 | 2.1 | 5.3 | fold higher inhibitory activity with respect to the corresponding 4-methyl derivative ([1]; 2i vs 2e, 2j vs 2f): 42 fold; melting point: 81 to 84 °C; time during which HNE inhibition was maximal (HNE [3]): 30 min
21 | CC(C)c1cc(=S)on1C(=O)C1CC1 [Compound 3a, Cyclopropyl-(3-isopropyl-5-thioxoisoxazol-2(5H)-yl)methanone] | 2100 ± 310 |  |  | 
22 | CCOC(=O)c1c(C)c(=O)on1C(=O)c1cccc(C)c1 [Compound 2h, Ethyl 4-methyl-2-(3-methylbenzoyl)-5-oxo-2,5-dihydroisoxazole-3-carboxylate] | 39700 ± 5100 |  |  | 
